Data reported in patent publication US7138415B2, “Indolamid derivatives which possess glycogenphosphorylase inhibitory activity” (AstraZeneca AB, priority 2002, dated 2006).

What was measured:
[1] = conscious dogs; cited from earlier work
hepatocytes = details: cited from earlier work
[2] = db/db and ob/ob mice; cited from earlier work
[3] = molecular target: T1, Human recombinant liver glycogen phosphorylase α (hrl GPα) (Homo sapiens, UniProt P06737); experiment: Glycogen phosphorylase inhibition of glycogen degradation (multienzyme coupled assay, NADH fluorescence); type: biochemical; details: glycogen degradation direction
T1 sequence (P06737 1-847): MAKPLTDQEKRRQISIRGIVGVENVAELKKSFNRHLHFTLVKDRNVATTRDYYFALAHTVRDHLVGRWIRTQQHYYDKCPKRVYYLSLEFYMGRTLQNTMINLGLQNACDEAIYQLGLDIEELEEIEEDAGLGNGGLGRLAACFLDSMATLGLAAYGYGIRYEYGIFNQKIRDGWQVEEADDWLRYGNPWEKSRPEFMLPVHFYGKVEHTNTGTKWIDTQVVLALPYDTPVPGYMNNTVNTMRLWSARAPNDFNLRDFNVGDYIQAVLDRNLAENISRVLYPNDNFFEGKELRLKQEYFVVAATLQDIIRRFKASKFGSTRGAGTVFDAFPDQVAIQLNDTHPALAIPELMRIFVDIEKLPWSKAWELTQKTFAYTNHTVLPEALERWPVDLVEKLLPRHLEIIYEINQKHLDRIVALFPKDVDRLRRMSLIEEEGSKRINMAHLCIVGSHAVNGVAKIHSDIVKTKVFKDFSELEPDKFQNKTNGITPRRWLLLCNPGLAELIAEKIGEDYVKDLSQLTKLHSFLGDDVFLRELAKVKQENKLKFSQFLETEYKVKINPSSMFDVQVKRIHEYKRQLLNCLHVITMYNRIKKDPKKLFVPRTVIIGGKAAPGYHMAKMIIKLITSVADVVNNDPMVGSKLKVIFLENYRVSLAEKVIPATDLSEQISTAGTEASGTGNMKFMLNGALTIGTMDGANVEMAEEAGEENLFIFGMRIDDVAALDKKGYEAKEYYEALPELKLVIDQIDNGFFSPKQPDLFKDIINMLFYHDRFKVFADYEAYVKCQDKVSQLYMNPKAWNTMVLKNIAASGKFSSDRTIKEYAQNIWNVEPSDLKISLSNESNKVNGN
Experimental: The activity of the compounds is alternatively determined by measuring the inhibitory effect of the compounds on glycogen degradation, the production of glucose-1-phosphate from glycogen is monitored by the multienzyme coupled assay, as described in EP 0 846 464 A2, general method of Pesce et al (Pesce, M A, Bodourian, S H, Harris, R C, and Nicholson, J F (1977) Clinical Chemistry 23, […]). The reactions were in 384well microplate format in a volume of 50 μl. The change in fluorescence due to the conversion of the co-factor NAD to NADH is measured at 340 nm excitation, 465 nm emission in a Tecan Ultra Multifunctional Microplate Reader. The reaction is in 50 mM HEPES, 3.5 mM KH2PO4, 2.5 mM MgCl2, 2.5mM ethylene glycol-bis(b-aminoethyl ether) N,N,N′,N′-tetraacetic acid, 100 mM KCl, 8mM D-(+)-glucose pH7.2, containing 0.5 mM dithiothreitol, the assay buffer solution. Human recombinant liver glycogen phosphorylase α (hrl GPα) 20 nM is pre-incubated in assay buffer solution with 6.25 mM NAD, 1.25 mg type III glycogen at 1.25 mg ml^−1 the reagent buffer, for 30 minutes. […] The non-inhibited activity of GPα is measured in the presence of 10 μl 5% DMSO in assay buffer solution and maximum inhibition measured in the presence of 5 mgs ml^−1 N-ethylmaleimide. […] Relative Fluoresence Units (RFUs) are measured at 340 nm excitation, 465 nm emission. […]

IC50 [3] [µM]	SMILES	arterial plasma glucose following a glucagon challenge [1]	hepatic glucose output following a glucagon challenge [1]	glucagon stimulated glycogenolysis (hepatocytes)	glucose output in hepatocytes (hepatocytes)	plasma glucose concentration [2]
–	CCN1C(C)=C(C(=O)OC(C)C)C(c2ccccc2Cl)C2=C1COC2=O (stereo not drawn) [Bay R 3401]	reduced significantly	reduced significantly	–	–	–
–	CN(C)C(=O)[C@H](O)[C@H](Cc1ccccc1)NC(=O)c1cc2cc(Cl)ccc2[nH]1 [CP91149]	–	–	reduce	reduce	reduced, in a dose related manner
–	O=C(N[C@@H](Cc1ccc(F)cc1)C(=O)N1CCC(O)CC1)c1cc2cc(Cl)ccc2[nH]1 [CP320626]	–	–	reduce	reduce	reduced, in a dose related manner
7.4	O=C(CN(CCO)Cc1ccccc1)N[C@@H]1c2ccccc2C[C@H]1NC(=O)c1cc2cc(Cl)ccc2[nH]1 [Example 17, 5-Chloro-N-[(1R,2R)-1-({[(2-hydroxyethyl)(phenylmethyl)amino]acetyl}amino)-2,3-dihydro-1H-inden-2-yl]-1H-indole-2-carboxamide]	–	–	–	–	–
